Data reported in PMC11523213, “Fluorinated N-Heterocyclic Carbene Silver(I) Complexes with High Cancer Cell Selectivity” (Organometallics, 2024).
Where two headings read alike, the source gives them in different places.

Key:
MDA-MB-231 = assay: Cell viability (MTT) assay, 24 h; assay type: cell-based, human; conditions: for IC50: 24 h treatment, MTT, n = 9, read-out: IC50 ± SD, MDA-MB-231; for MCF-7/MDA-MB-231 SR (selectivity ratio): ratio of IC50 MCF-7 versus MDA-MB-231
Description: (§1) All cells were treated with compounds for 24 h, and cell viability was determined via the MTT assay. […] The nonfluorinated benzyl–imidazole complex [Ag2(L5)2](PF6)2 was synthesized and screened to determine if the fluorine has any influence on cytotoxicity.
(§2) All cytotoxicity assays were conducted using human cell lines: breast adenocarcinomas (MDA-MB-231 and MCF-7) and non-cancerous epithelial retinal (ARPE-19) cell lines. All cell lines were routinely maintained as monolayer cultures in an appropriate complete medium: MCF-7 and ARPE-19 in high glucose DMEM complete medium (including 10% FBS, 1 mM sodium pyruvate, 2 mM L-glutamine and 1% pen-strep) and MDA-MB-231 in RPMI-1640 complete medium (including 10% FBS, 1 mM sodium pyruvate, 2 mM L-glutamine and 1% pen-strep) and grown in either T-25 or T-75 flasks at 37 °C and 5% CO2. Prior to chemosensitivity studies, cell monolayers were passaged using Trypsin-EDTA (0.05%) and diluted to a concentration of 4 × 10^4 cells/mL. All assays were conducted using 96-well plates, in which 100 μL of the cell suspension was added for 24 h at 37 °C and 5% CO2 and then 100 μL of compound/media dilutions for a further 24 h (compound stocks were made using sterile DMSO at 100 mM prior to dilution and a maximum of 0.1% DMSO used in each assay).

MCF-7 = assay: Cell viability (MTT) assay, 24 h; assay type: cell-based, human; conditions: for IC50: 24 h treatment, MTT, n = 9, read-out: IC50 ± SD, MCF-7
Description: as §1, §2

ARPE-19 = assay: Cell viability (MTT) assay, 24 h, noncancerous cells; assay type: cell-based, human; conditions: n = 9, noncancerous retinal epithelia, read-out: IC50 ± SD, ARPE-19
Description: as §1, §2

DNA = test system: DNA; parameters: method as in PMID 27060216; conditions: cited from earlier work
[1] = Homo sapiens, ARPE-19, 24 h treatment

| IC50 (MDA-MB-231; Homo sapiens, MDA-MB-231) [µM] | IC50 (MCF-7; Homo sapiens, MCF7) [µM] | IC50 (MDA-MB-231) [µM] | IC50 (MCF-7) [µM] | Compound | MCF-7/MDA-MB-231 SR (selectivity ratio) (MDA-MB-231) | IC50 (ARPE-19; [1]) [µM] | Selectivity index (SI) MCF-7 vs ARPE-19 (MCF-7; SI > 1 indicates selectivity for the breast cancer line, * = minimum value) | IC50 (ARPE-19; 24 h treatment) [µM] | Binding constant to DNA (DNA) |
| --- | --- | --- | --- | --- | --- | --- | --- | --- | --- |
| 42.6 ± 0.05 | > 100 |  |  | Fc1ccc(Cn2c[n+](Cc3ccc(F)cc3)c3ccccc32)cc1 [HL2(PF6), 1,3-Bis-(4-fluorobenzyl)benzimidazolium hexafluorophosphate] | > 2.35 | > 100 |  |  |  |
|  |  | > 100 | 54 ± 3 | [NH2][Pt]([NH2])([Cl])[Cl] [CDDP, cisplatin, reference compound] | < 0.54 |  | ≥ 1.84 | > 100 |  |
|  |  |  |  | COc1cccc2c1C(=O)c1c(O)c3c(c(O)c1C2=O)C[C@@](O)(C(=O)CO)C[C@@H]3O[C@H]1C[C@H](N)[C@H](O)[C@H](C)O1 [doxorubicin] |  |  |  |  | 2.33 ± 0.33 × 10^4 M^–1 |
| > 100 | > 100 |  |  | Fc1ccc(C[n+]2cn(Cn3c[n+](Cc4ccc(F)cc4)c4ccccc43)c3ccccc32)cc1 [H2L4(PF6)2, 1,1′-Bis-(4-fluorobenzyl)-3,3′-methylenedibenzimidazolium dihexafluorophosphate] |  | > 100 |  |  |  |
